From paper PMC3871589, “Evaluation of STAT3 Signaling in ALDH+ and ALDH+/CD44+/CD24− Subpopulations of Breast Cancer Cells” (PLoS ONE, 2013)

Legend:
[1] = tested on: MDA-MB-231, SK-BR-3, and SUM159 breast cancer cell lines; experiment: Apoptosis (cleaved PARP and Caspase-3) in un-separated breast cancer cells; assay type: cell-based, human; details: un-separated MDA-MB-231, SK-BR-3, SUM159 cells; 10 µM, 24 hours
Protocol: (§1) After sorting by flow cytometry, ALDH^+ and ALDH^+/CD44^+/CD24^− stem-like cells were cultured in serum-free stem cell medium in ultra-low attachment six-well plates (Corning) to maintain cancer stem cell characteristics. ALDH^−, ALDH^−/CD44^+/CD24^+cells and un-separated cells were cultured in regular medium and replaced with identical stem cell medium for three days before being harvested. To assess the effects of STAT3 inhibitors, ALDH^+ and ALDH^+/CD44^+/CD24^− subpopulations of breast cancer cells were treated with LLL12 (5 µmol/L) of or static (10 µmol/L) for 24 hours. STAT3, or control GFP shRNA lentivirus (CTL ShRNA) was introduced into ALDH^+ breast cancer stem-like cells for 48 hours, then followed by selection with puromycin (0.2 µg/ml) for 72 hours. Antibodies (Cell Signaling Tech.) against phospho-specific STAT3 (Tyrosine 705) (P-STAT3, Y705), ERK1/2 (Threonine 202/Tyrosine 204), cleaved Poly (ADP-ribose) polymerase (PARP), ALDH1, cleaved caspase-3, and GAPDH were used for western blots.
(§2) LLL12 was synthesized in Dr. Pui-Kai Li’s laboratory (College of Pharmacy, The Ohio State University). Un-separated cells were treated with 10 µM of LLL12 or DMSO for 24 hours, and the phosphorylation of STAT3 (Y705), and ERK 1/2 (T202/Y204), and expression of STAT3 downstream genes, cleaved caspase-3, and PARP were detected by Western blots. (JPG) Click here for additional data file.

[2] = target: c-Raf (Homo sapiens, UniProt P04049); experiment: Kinase profiler assay, c-Raf; assay type: biochemical; details: bound stated jointly for the other protein kinases; Table S3
Sequence of c-Raf (P04049 whole entry): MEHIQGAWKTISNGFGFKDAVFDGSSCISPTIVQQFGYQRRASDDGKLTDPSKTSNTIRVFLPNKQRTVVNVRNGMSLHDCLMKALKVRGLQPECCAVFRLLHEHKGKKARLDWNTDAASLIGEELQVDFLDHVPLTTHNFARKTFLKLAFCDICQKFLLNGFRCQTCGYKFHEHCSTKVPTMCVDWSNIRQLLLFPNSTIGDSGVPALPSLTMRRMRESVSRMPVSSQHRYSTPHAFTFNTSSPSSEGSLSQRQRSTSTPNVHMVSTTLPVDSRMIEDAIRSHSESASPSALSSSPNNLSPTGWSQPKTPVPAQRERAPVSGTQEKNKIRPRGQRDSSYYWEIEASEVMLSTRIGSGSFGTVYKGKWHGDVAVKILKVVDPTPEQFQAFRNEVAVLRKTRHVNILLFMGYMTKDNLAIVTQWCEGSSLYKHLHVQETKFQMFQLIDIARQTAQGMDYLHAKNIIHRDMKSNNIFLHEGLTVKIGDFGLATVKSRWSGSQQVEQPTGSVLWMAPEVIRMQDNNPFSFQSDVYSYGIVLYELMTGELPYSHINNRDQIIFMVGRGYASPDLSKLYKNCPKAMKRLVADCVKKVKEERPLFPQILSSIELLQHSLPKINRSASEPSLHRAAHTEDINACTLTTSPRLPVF
Protocol: The effects of LLL12 on twenty six purified human protein kinases were performed at the Millipore UK Limited (Dundee, UK) and Reaction Biology Corp. (Malvern, PA) using the Kinase profiler assay. Assays contained a peptide substrate, purified recombinant human protein kinases to be tested, and gamma-labeled ATP, magnesiumion. Radioactive phosphorylated product was measured and quantitated via a scintillation counter.

[3] = tested on: ERK 1/2 (T202/Y204) phosphorylation; experiment: Western blot of ERK phosphorylation in un-separated breast cancer cells; assay type: cell-based, human; details: 10 µM, 24 hours
Protocol: as §1, §2

[4] = tested on: STAT3-regulated genes; experiment: RT-PCR of STAT3-regulated genes in ALDH+/CD44+/CD24− cells; assay type: cell-based, human; details: 5 µM, 24 h
Protocol: The ALDH^+ and ALDH^+/CD44^+/CD24^− subpopulations of breast cancer cells were treated with LLL12 (5 µM) or DMSO for 24 h. RNA from the cells was then collected using RNeasy Kits (Qiagen). cDNA was constructed from a 500 ng sample of RNA using Omniscript RT (Qiagen). Primer sequences and source information can be found in Table S1. The intensity of bands was quantified and normalized to GAPDH.

[5] = tested on: STAT3 phosphorylation (Y705); experiment: Western blot of STAT3 phosphorylation in un-separated breast cancer cells; assay type: cell-based, human; details: un-separated MDA-MB-231, SK-BR-3, SUM159 cells, 10 µM, 24 hours
Protocol: as §1, §2

[6] = tested on: ALDH+ subpopulation of MDA-MB-231, SUM159, and SK-BR-3 cells; experiment: Cleaved caspase-3 in ALDH+ cells; assay type: cell-based, human; details: LLL12 5 µmol/L 24 hours, ShRNA 48 hours then puromycin
Protocol: (§3) The ALDEFLUOR kit (StemCell Technologies) was used to isolate the population with high ALDH enzymatic activity as previously described. Briefly, cells were trypsinized to single cells using 0.05% trypsin and subsequently suspended in ALDEFLUOR assay buffer containing ALDH substrate (BAAA, 1 µmol/l per 1×10^6 cells) and then incubated for 40 minutes at 37°C. For each sample, an aliquot of cells was stained under identical conditions with 15 mmol/L diethylaminobenzaldehyde (DEAB), a specific ALDH inhibitor, as an ALDH^− control. Anti-human PE-CD24 and PE-Cy5-CD44 antibody (BioLegend) were used for CD44/CD24 identification and to separate ALDH^+/CD44^+/CD24^− and ALDH^−/CD44^+/CD24^+ cells when combined with ALDH staining. Analysis was performed using a FACStarPLUS (Becton Dickinion) flow cytometer. To assess the effect of STAT3 inhibitors on the subpopulation of ALDH^+ cells, un-separated breast cancer cells were treated with 5 µmol/L of LLL12 or 10 µmol/L Stattic for 24 hours prior to performing the ALDEFLUOR assay.
(§4) After sorting by flow cytometry, ALDH^+ and ALDH^+/CD44^+/CD24^− stem-like cells were cultured in serum-free stem cell medium in ultra-low attachment six-well plates (Corning) to maintain cancer stem cell characteristics. […]

[7] = tested on: STAT3 phosphorylation; experiment: Western blot of STAT3 phosphorylation in ALDH+/CD44+/CD24− cells; assay type: cell-based, human; details: ALDH+/CD44+/CD24− subpopulation of MDA-MB-231 and SUM159; 0.5–5 µM
Protocol: as §3, §4

SMILES: NS(=O)(=O)c1cccc2c1C(=O)c1cccc(O)c1C2=O [LLL12]
- apoptosis (cleaved PARP and Caspase-3) [1]: induced apoptosis
- IC50 [2]: ≥ 77.9 µM
- phosphorylation of ERK [3]: did not inhibit
- expression of Cyclin D1, survivin, Bcl-2, Bcl-XL and Notch1 [4]: down-regulated
- STAT3 phosphorylation [5]: inhibited
- cleaved caspase-3 in ALDH+ cells [6]: induced cleaved caspase-3
- STAT3 phosphorylation [7]: inhibited
